Measured values as given in PubChem BioAssay (NCI).
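In this assay, cells in 96-well plates receive the compound at five concentrations for 48 hours. Endpoints are linearly interpolated between the surrounding concentrations. GI50 = concentration required for 50% inhibition of growth. TGI denotes the concentration required for complete inhibition of growth.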

Key:
Experiment in all cases: DTP human tumour cell line panel, 48 h
CCRF-CEM leukemia = tested on: CCRF-CEM leukemia
SR leukemia = tested on: SR leukemia
SN12C renal = tested on: SN12C renal
CAKI-1 renal = tested on: CAKI-1 renal
MCF7 breast = tested on: MCF7 breast
IGROV1 ovarian = tested on: IGROV1 ovarian
SK-MEL-5 melanoma = tested on: SK-MEL-5 melanoma
OVCAR-3 ovarian = tested on: OVCAR-3 ovarian
HL-60(TB) leukemia = tested on: HL-60(TB) leukemia
HOP-62 NSCLC = tested on: HOP-62 NSCLC

| Structure (SMILES) | TGI (CCRF-CEM leukemia) [µM] | TGI (SR leukemia) [µM] | TGI (SN12C renal) [µM] | TGI (CAKI-1 renal) [µM] | TGI (MCF7 breast) [µM] | TGI (IGROV1 ovarian) [µM] | TGI (SK-MEL-5 melanoma) [µM] | TGI (OVCAR-3 ovarian) [µM] | TGI (HL-60(TB) leukemia) [µM] | TGI (HOP-62 NSCLC) [µM] | GI50 (HOP-62 NSCLC) [µM] | GI50 (CCRF-CEM leukemia) [µM] | GI50 (SN12C renal) [µM] | GI50 (CAKI-1 renal) [µM] | GI50 (MCF7 breast) [µM] | GI50 (SK-MEL-5 melanoma) [µM] | GI50 (OVCAR-3 ovarian) [µM] | GI50 (HL-60(TB) leukemia) [µM] | GI50 (SR leukemia) [µM] | GI50 (IGROV1 ovarian) [µM] |
| --- | --- | --- | --- | --- | --- | --- | --- | --- | --- | --- | --- | --- | --- | --- | --- | --- | --- | --- | --- | --- |
| CC(=O)OC(C)(C)/C=C/C(=O)[C@](C)(O)[C@H]1[C@H](O)C[C@@]2(C)[C@@H]3CC=C4[C@@H](C[C@H](O)C(=O)C4(C)C)[C@]3(C)C(=O)C[C@]12C | 0.423 | 1.21 | 2.99 | < 0.01 | 7.66 | < 0.0132 | 0.135 | 0.17 | < 0.01 |  |  |  |  |  |  |  |  |  |  |  |
| COC(=O)c1ccc(N=NN(C)CO)cc1 | > 100 | > 100 | > 100 |  |  | > 100 | > 100 | > 100 | > 100 | > 100 |  |  |  |  |  |  |  |  |  |  |
| CS(=O)c1ccc(COP(N)(=O)N(CCCl)CCCl)cc1 (configuration not stated) | > 100 | > 100 | > 100 | > 100 |  | > 100 | > 100 | > 100 | > 100 | > 100 |  |  |  |  |  |  |  |  |  |  |
| C=C(CN1CCc2ccccc2C1)c1ccc(C(=O)Nc2ccc(N)cc2)cc1 | > 100 |  | > 100 | > 100 | > 100 |  | 30.9 | 48 | 36.7 | > 100 | 28.5 | 0.454 | 30.1 | 19.6 | 14.8 | 16.3 | 12.7 | 7.07 |  |  |
| Cc1ccc2c(=O)c3cccc(CC(=O)O)c3oc2c1C | > 100 | > 100 | > 100 | > 100 | > 100 | > 100 | > 100 | > 100 | > 100 | > 100 | > 100 | > 100 | > 100 | > 100 | > 100 | > 100 | > 100 | > 100 | > 100 | > 100 |
| O=S1(=O)C[C@@H](O)[C@H](O)CS1 |  | > 100 | > 100 | > 100 |  | > 100 | > 100 | > 100 | > 100 | > 100 |  |  |  |  |  |  |  |  |  |  |
| S=C(Nc1ccc(Cl)cc1)Nc1ccc(-c2nc3ccccc3[nH]2)cc1 | > 63.6 | > 21.5 | 23.7 | 12.5 | > 41.5 | 23.7 | 23.2 |  | > 66 | 30 | 15 | 4.37 | 6.55 | 2.7 |  | 6.37 | 1.33 | 7.26 | 8.07 | 7.02 |
| O=c1cc(-c2ccccc2)nc2n1CCN2Cc1ccccc1 | 42.8 |  | > 100 | > 100 | > 100 | 53.2 | 37.4 | 99.6 | 58.2 | > 100 | 63.8 | 16.2 | 32.2 | 29.7 | 41.9 | 19.9 | 27.3 | 33.1 |  | 21.2 |
| Cc1ccc2c(N)c(C(=O)N[C@H]3CCc4cc(N5CC6CCC(C5)N6)ccc4C3)sc2n1 | > 33 | 4.36 | 1.8 | 2.96 | 2.43 | 2.72 | 1.9 | 2.63 | 1.31 | 2.36 | 0.291 | 0.228 | 0.263 | 0.357 | 0.283 | 0.569 | 0.547 | 0.172 | 0.202 | 0.348 |
| O=C1C(=O)c2ccccc2C(O)=C1C(CCc1ccccc1)C1=C(O)c2ccccc2C(=O)C1=O | > 100 | > 100 | > 100 | > 100 | > 100 | > 100 | 30.9 | > 100 | 15.4 | > 100 |  |  |  |  |  |  |  |  |  |  |
| O=C1C=Cc2ccccc2/C1=C/c1[nH]c(=O)[nH]c1O | > 100 | 7.83 | > 100 | 42.7 | 15.2 | 26.6 | 13 | 7.73 | > 100 | 35 | 7.5 | 4.01 | 10.1 | 5.7 | 2.4 | 2.84 | 2.51 | 3.44 | 1.67 | 1.39 |
| COc1nc(C)cc2c(=O)n(-c3ccccc3)n(CCCN3CCN(c4ccc(Cl)cc4)CC3)c(=O)c12 |  | > 50 | > 50 | > 50 | > 50 | > 50 | > 50 | > 50 | > 50 | > 50 | 24.5 |  | > 50 | 38.2 | 37.7 | 16.9 | 24.6 | > 50 | > 50 | > 50 |
| CCSc1nc(N=Cc2cccs2)c2cn[nH]c2n1 |  | 7.21 | > 100 | > 100 | 19.2 | > 100 | 38.1 | 53.9 |  | > 100 | 53.8 |  | 61.9 | 18 | 3.5 | 7.35 | 10.4 |  | 2.1 | 23.6 |
| COC(=O)c1c(CC#N)cccc1CC#N | > 100 | > 100 | > 100 | > 100 |  | > 100 |  | > 100 | > 100 | > 100 |  |  |  |  |  |  |  |  |  |  |
| COC(=O)C(Nc1ccc(OC)cc1)c1ccccc1 (configuration not stated) | > 100 | > 100 | > 100 | > 100 | > 100 | > 100 | > 100 | > 100 |  | > 100 |  |  |  |  |  |  |  |  |  |  |
| CCOC(=O)c1ccc(N2C(=O)/C(=C\OC)c3ccccc3C2=O)cc1 |  | > 100 | > 100 | > 100 |  | > 100 | > 100 | > 100 |  |  |  |  |  |  |  |  |  |  |  |  |
| Nc1c(-c2nc3ccccc3[nH]2)sc(=S)n1-c1ccccc1 | 81.2 | 86.5 | > 100 | > 100 |  | > 100 | > 100 | > 100 | > 100 | > 100 |  |  |  |  |  |  |  |  |  |  |
